Measured values as given in ChEMBL document CHEMBL1201862, “PubChem BioAssay data set” (2004).
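A five-concentration, 48-hour dose response in 96-well plates underlies each endpoint, interpolated linearly between surrounding concentrations. GI50 = concentration required for 50% inhibition of growth.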 Active and inactive are the calls of the source. Rule as the data show it: active = GI50 up to about 1.1 µM and inactive = higher.

How the values were obtained:
Assay in all cases: NCI tumour cell line growth inhibition, 48 h
[1] = test system: 786-0
[2] = test system: A549
[3] = test system: ACHN
[4] = test system: CAKI-1
[5] = test system: CCRF-CEM
[6] = test system: COLO 205
[7] = test system: DLD-1
[8] = test system: DMS-114
[9] = test system: DMS-273
[10] = test system: HCC 2998
[11] = test system: HCT-116
[12] = test system: HCT-15
[13] = test system: HL-60
[14] = test system: HOP-62
[15] = test system: HOP-92
[16] = test system: HT-29
[17] = test system: IGROV-1
[18] = test system: K562
[19] = test system: KM-20L2
[20] = test system: KM12
[21] = test system: LXFL 529
[22] = test system: M14
[23] = test system: M19-MEL
[24] = test system: MOLT-4
[25] = test system: Malme-3M
[26] = test system: NCI-H226
[27] = test system: NCI-H23
[28] = test system: NCI-H460
[29] = test system: NCI-H522
[30] = test system: OVCAR-3
[31] = test system: OVCAR-4
[32] = test system: OVCAR-5
[33] = test system: OVCAR-8
[34] = test system: RPMI-8226
[35] = test system: SF-268
[36] = test system: SF-295
[37] = test system: SF-539
[38] = test system: SK-MEL-28
[39] = test system: SK-MEL-2
[40] = test system: SK-MEL-5
[41] = test system: SNB-19
[42] = test system: SNB-75
[43] = test system: SR
[44] = test system: SW-620
[45] = test system: TK-10
[46] = test system: U-251
[47] = test system: UACC-257
[48] = test system: UACC-62
[49] = test system: UO-31
[50] = test system: XF498
[51] = test system: A498
[52] = test system: EKVX
[53] = test system: LOX IMVI
[54] = test system: RXF 393
[55] = test system: SK-OV-3
[56] = test system: SN12C
[57] = test system: SNB-78

**Q.** For `CC[N+](CC)(CC)Cc1cc2ccccc2n1C(=O)OC`, which GI50 [1] is on record?
**A.** > 100 µM (inactive)

**Q.** And the GI50 [2]?
**A.** > 100 µM (inactive)

**Q.** And the GI50 [3]?
**A.** > 100 µM (inactive)

**Q.** And the GI50 [4]?
**A.** > 100 µM (inactive)

**Q.** What about the GI50 [5] of the same compound?
**A.** > 100 µM (inactive)

**Q.** What about the GI50 [6] of the same compound?
**A.** > 100 µM (inactive)

**Q.** And the GI50 [7]?
**A.** > 100 µM (inactive)

**Q.** And the GI50 [8]?
**A.** > 100 µM (inactive)

**Q.** And the GI50 [9]?
**A.** > 100 µM (inactive)

**Q.** What about the GI50 [10] of the same compound?
**A.** > 100 µM (inactive)

**Q.** And the GI50 [11]?
**A.** > 100 µM (inactive)

**Q.** What about the GI50 [12] of the same compound?
**A.** > 100 µM

**Q.** And the GI50 [13]?
**A.** > 100 µM (inactive)

**Q.** And the GI50 [14]?
**A.** > 100 µM (inactive)

**Q.** And the GI50 [15]?
**A.** > 100 µM (inactive)

**Q.** And the GI50 [16]?
**A.** > 100 µM (inactive)

**Q.** And the GI50 [17]?
**A.** > 100 µM (inactive)

**Q.** What about the GI50 [18] of the same compound?
**A.** > 100 µM (inactive)

**Q.** And the GI50 [19]?
**A.** > 100 µM (inactive)

**Q.** What about the GI50 [20] of the same compound?
**A.** > 100 µM (inactive)

**Q.** And the GI50 [21]?
**A.** > 100 µM (inactive)

**Q.** And the GI50 [22]?
**A.** > 100 µM (inactive)

**Q.** What about the GI50 [23] of the same compound?
**A.** > 100 µM (inactive)

**Q.** What about the GI50 [24] of the same compound?
**A.** > 100 µM (inactive)

**Q.** And the GI50 [25]?
**A.** > 100 µM (inactive)

**Q.** And the GI50 [26]?
**A.** > 100 µM (inactive)

**Q.** And the GI50 [27]?
**A.** > 100 µM (inactive)

**Q.** And the GI50 [28]?
**A.** > 100 µM (inactive)

**Q.** What about the GI50 [29] of the same compound?
**A.** > 100 µM (inactive)

**Q.** And the GI50 [30]?
**A.** 70.6 µM (inactive)

**Q.** And the GI50 [31]?
**A.** > 100 µM (inactive)

**Q.** And the GI50 [32]?
**A.** > 100 µM (inactive)

**Q.** And the GI50 [33]?
**A.** > 100 µM (inactive)

**Q.** What about the GI50 [34] of the same compound?
**A.** > 100 µM (inactive)

**Q.** And the GI50 [35]?
**A.** > 100 µM (inactive)

**Q.** And the GI50 [36]?
**A.** > 100 µM (inactive)

**Q.** And the GI50 [37]?
**A.** > 100 µM (inactive)

**Q.** What about the GI50 [38] of the same compound?
**A.** > 100 µM (inactive)

**Q.** And the GI50 [39]?
**A.** > 100 µM (inactive)

**Q.** What about the GI50 [40] of the same compound?
**A.** > 100 µM (inactive)

**Q.** And the GI50 [41]?
**A.** > 100 µM (inactive)

**Q.** And the GI50 [42]?
**A.** 87.9 µM (inactive)

**Q.** And the GI50 [43]?
**A.** > 100 µM (inactive)

**Q.** And the GI50 [44]?
**A.** > 100 µM (inactive)

**Q.** What about the GI50 [45] of the same compound?
**A.** > 100 µM (inactive)

**Q.** And the GI50 [46]?
**A.** > 100 µM (inactive)

**Q.** What about the GI50 [47] of the same compound?
**A.** > 100 µM (inactive)

**Q.** And the GI50 [48]?
**A.** > 100 µM (inactive)

**Q.** And the GI50 [49]?
**A.** > 100 µM (inactive)

**Q.** What about the GI50 [50] of the same compound?
**A.** > 100 µM (inactive)

**Q.** For `CCN(CC)c1ccc2cc3ccc(N(CC)CC)cc3[o+]c2c1`, which GI50 [1] is on record?
**A.** 2.97 µM (inactive)

**Q.** And the GI50 [51]?
**A.** 14.6 µM (inactive)

**Q.** And the GI50 [2]?
**A.** 3.14 µM (inactive)

**Q.** What about the GI50 [3] of the same compound?
**A.** 1.26 µM (inactive)

**Q.** And the GI50 [4]?
**A.** 4.06 µM (inactive)

**Q.** What about the GI50 [5] of the same compound?
**A.** 0.0419 µM (active)

**Q.** What about the GI50 [6] of the same compound?
**A.** 0.798 µM (active)

**Q.** And the GI50 [7]?
**A.** 1.39 µM (inactive)

**Q.** And the GI50 [8]?
**A.** 0.687 µM (active)

**Q.** And the GI50 [9]?
**A.** 1.12 µM (active)

**Q.** And the GI50 [52]?
**A.** 5.5 µM (inactive)

**Q.** What about the GI50 [10] of the same compound?
**A.** 4.39 µM (inactive)

**Q.** What about the GI50 [11] of the same compound?
**A.** 0.29 µM (active)

**Q.** And the GI50 [12]?
**A.** 2.07 µM

**Q.** What about the GI50 [13] of the same compound?
**A.** 0.0773 µM (active)

**Q.** What about the GI50 [14] of the same compound?
**A.** 3.31 µM (inactive)

**Q.** And the GI50 [15]?
**A.** 0.693 µM (active)

**Q.** What about the GI50 [16] of the same compound?
**A.** 0.474 µM (active)

**Q.** And the GI50 [17]?
**A.** 2.08 µM (inactive)

**Q.** And the GI50 [18]?
**A.** 2.82 µM (inactive)

**Q.** What about the GI50 [19] of the same compound?
**A.** 1.82 µM (inactive)

**Q.** And the GI50 [20]?
**A.** 0.51 µM (active)

**Q.** And the GI50 [53]?
**A.** 0.6 µM (active)

**Q.** What about the GI50 [21] of the same compound?
**A.** 0.457 µM (active)

**Q.** And the GI50 [22]?
**A.** 1.95 µM (inactive)

**Q.** What about the GI50 [24] of the same compound?
**A.** 0.127 µM (active)

**Q.** And the GI50 [25]?
**A.** 1.2 µM (inactive)

**Q.** And the GI50 [26]?
**A.** 5.62 µM (inactive)

**Q.** What about the GI50 [27] of the same compound?
**A.** 0.946 µM (active)

**Q.** And the GI50 [28]?
**A.** 1.78 µM (inactive)

**Q.** And the GI50 [29]?
**A.** 1.69 µM (inactive)

**Q.** What about the GI50 [30] of the same compound?
**A.** 0.8 µM (active)

**Q.** And the GI50 [31]?
**A.** 11.1 µM (inactive)

**Q.** What about the GI50 [32] of the same compound?
**A.** 6.82 µM (inactive)

**Q.** What about the GI50 [33] of the same compound?
**A.** 0.407 µM (active)

**Q.** And the GI50 [34]?
**A.** 0.305 µM (active)

**Q.** And the GI50 [54]?
**A.** 2.36 µM (inactive)

**Q.** And the GI50 [35]?
**A.** 1.29 µM (inactive)

**Q.** What about the GI50 [36] of the same compound?
**A.** 4.48 µM (inactive)

**Q.** And the GI50 [37]?
**A.** 2.02 µM (inactive)

**Q.** And the GI50 [38]?
**A.** 2.56 µM (inactive)

**Q.** What about the GI50 [39] of the same compound?
**A.** 1.34 µM (inactive)

**Q.** What about the GI50 [40] of the same compound?
**A.** 2.34 µM (inactive)

**Q.** What about the GI50 [55] of the same compound?
**A.** 6.52 µM (inactive)

**Q.** What about the GI50 [56] of the same compound?
**A.** 0.832 µM (active)

**Q.** What about the GI50 [41] of the same compound?
**A.** 7.8 µM (inactive)

**Q.** What about the GI50 [42] of the same compound?
**A.** 5.37 µM (inactive)

**Q.** What about the GI50 [57] of the same compound?
**A.** 2.43 µM (inactive)

**Q.** And the GI50 [43]?
**A.** 0.267 µM (active)

**Q.** What about the GI50 [44] of the same compound?
**A.** 0.237 µM (active)

**Q.** What about the GI50 [45] of the same compound?
**A.** 6.08 µM (inactive)

**Q.** And the GI50 [46]?
**A.** 0.624 µM (active)

**Q.** What about the GI50 [47] of the same compound?
**A.** 2.59 µM (inactive)

**Q.** What about the GI50 [48] of the same compound?
**A.** 1.71 µM (inactive)

**Q.** And the GI50 [49]?
**A.** 2.28 µM (inactive)

**Q.** And the GI50 [50]?
**A.** 1.23 µM (inactive)
